Assay results as given in PubChem BioAssay (NCI).
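Briefly, cells in 96-well plates were exposed to five compound concentrations for 48 h, and endpoints were estimated by linear interpolation. TGI marks complete inhibition of growth.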

Assays:
Assay in all cases: inhibition of tumour cell growth, NCI panel, 48 h
T-47D breast = tested on: T-47D breast
LOX IMVI melanoma = tested on: LOX IMVI melanoma
UO-31 renal = tested on: UO-31 renal
SK-OV-3 ovarian = tested on: SK-OV-3 ovarian
NCI/ADR-RES ovarian = tested on: NCI/ADR-RES ovarian
HOP-92 NSCLC = tested on: HOP-92 NSCLC
786-0 renal = tested on: 786-0 renal
MOLT-4 leukemia = tested on: MOLT-4 leukemia
SK-MEL-5 melanoma = tested on: SK-MEL-5 melanoma
SW-620 colon = tested on: SW-620 colon
TK-10 renal = tested on: TK-10 renal
A549 NSCLC = tested on: A549 NSCLC
OVCAR-8 ovarian = tested on: OVCAR-8 ovarian
HCT-15 colon = tested on: HCT-15 colon
SN12C renal = tested on: SN12C renal
SNB-19 CNS = tested on: SNB-19 CNS
OVCAR-4 ovarian = tested on: OVCAR-4 ovarian
MDA-MB-435 = tested on: MDA-MB-435
NCI-H522 lung = tested on: NCI-H522 lung
SNB-75 CNS = tested on: SNB-75 CNS
CAKI-1 renal = tested on: CAKI-1 renal
RXF 393 renal = tested on: RXF 393 renal
COLO 205 colon = tested on: COLO 205 colon
SF-295 CNS = tested on: SF-295 CNS
RPMI-8226 leukemia = tested on: RPMI-8226 leukemia
MCF7 breast = tested on: MCF7 breast
ACHN renal = tested on: ACHN renal
SF-539 CNS = tested on: SF-539 CNS
M14 melanoma = tested on: M14 melanoma
DU-145 prostate = tested on: DU-145 prostate
OVCAR-5 ovarian = tested on: OVCAR-5 ovarian
UACC-257 melanoma = tested on: UACC-257 melanoma
IGROV1 ovarian = tested on: IGROV1 ovarian
HT29 colon = tested on: HT29 colon
MDA-MB-231 breast = tested on: MDA-MB-231 breast
CCRF-CEM leukemia = tested on: CCRF-CEM leukemia
PC-3 prostate = tested on: PC-3 prostate
SK-MEL-2 melanoma = tested on: SK-MEL-2 melanoma
KM12 colon = tested on: KM12 colon
EKVX NSCLC = tested on: EKVX NSCLC
NCI-H226 lung = tested on: NCI-H226 lung
UACC-62 melanoma = tested on: UACC-62 melanoma
OVCAR-3 ovarian = tested on: OVCAR-3 ovarian
MDA-N = tested on: MDA-N
BT-549 breast = tested on: BT-549 breast
NCI-H23 lung = tested on: NCI-H23 lung
U251 CNS = tested on: U251 CNS
HS 578T breast = tested on: HS 578T breast
A498 renal = tested on: A498 renal
HL-60(TB) leukemia = tested on: HL-60(TB) leukemia
HCT-116 colon = tested on: HCT-116 colon
NCI-H460 lung = tested on: NCI-H460 lung
SR leukemia = tested on: SR leukemia
SF-268 CNS = tested on: SF-268 CNS
K-562 leukemia = tested on: K-562 leukemia
MALME-3M melanoma = tested on: MALME-3M melanoma
SK-MEL-28 melanoma = tested on: SK-MEL-28 melanoma
HOP-62 NSCLC = tested on: HOP-62 NSCLC

## CCOC1Oc2ccccc2-c2nc(N)ncc21 (configuration not stated)
T-47D breast
  TGI: > 100 µM
LOX IMVI melanoma
  TGI: > 100 µM
UO-31 renal
  TGI: > 100 µM
SK-OV-3 ovarian
  TGI: > 100 µM
NCI/ADR-RES ovarian
  TGI: > 100 µM
HOP-92 NSCLC
  TGI: > 100 µM
786-0 renal
  TGI: > 100 µM
MOLT-4 leukemia
  TGI: > 100 µM
SK-MEL-5 melanoma
  TGI: > 100 µM
SW-620 colon
  TGI: > 100 µM
TK-10 renal
  TGI: > 100 µM
A549 NSCLC
  TGI: > 100 µM
OVCAR-8 ovarian
  TGI: > 100 µM
HCT-15 colon
  TGI: > 100 µM
SN12C renal
  TGI: > 100 µM
SNB-19 CNS
  TGI: > 100 µM
OVCAR-4 ovarian
  TGI: > 100 µM
MDA-MB-435
  TGI: 66.3 µM
NCI-H522 lung
  TGI: 72.8 µM
SNB-75 CNS
  TGI: > 100 µM
CAKI-1 renal
  TGI: > 100 µM
RXF 393 renal
  TGI: > 100 µM
COLO 205 colon
  TGI: > 100 µM
SF-295 CNS
  TGI: > 100 µM
RPMI-8226 leukemia
  TGI: > 100 µM
MCF7 breast
  TGI: > 100 µM
ACHN renal
  TGI: > 100 µM
SF-539 CNS
  TGI: > 100 µM
M14 melanoma
  TGI: > 100 µM
DU-145 prostate
  TGI: > 100 µM
OVCAR-5 ovarian
  TGI: > 100 µM
UACC-257 melanoma
  TGI: > 100 µM
IGROV1 ovarian
  TGI: > 100 µM
HT29 colon
  TGI: > 100 µM
MDA-MB-231 breast
  TGI: > 100 µM
CCRF-CEM leukemia
  TGI: > 100 µM
PC-3 prostate
  TGI: > 100 µM
SK-MEL-2 melanoma
  TGI: > 100 µM
KM12 colon
  TGI: > 100 µM
EKVX NSCLC
  TGI: > 100 µM
NCI-H226 lung
  TGI: > 100 µM
UACC-62 melanoma
  TGI: > 100 µM
OVCAR-3 ovarian
  TGI: > 100 µM
MDA-N
  TGI: > 100 µM
BT-549 breast
  TGI: > 100 µM
NCI-H23 lung
  TGI: > 100 µM
U251 CNS
  TGI: > 100 µM
HS 578T breast
  TGI: > 100 µM
A498 renal
  TGI: 81.3 µM
HL-60(TB) leukemia
  TGI: 62.3 µM
HCT-116 colon
  TGI: > 100 µM
NCI-H460 lung
  TGI: > 100 µM
SR leukemia
  TGI: 61.2 µM
SF-268 CNS
  TGI: > 100 µM

## Cn1c(=O)c2[nH]c(CCS)nc2n(C)c1=O
T-47D breast
  TGI: > 100 µM
LOX IMVI melanoma
  TGI: > 100 µM
K-562 leukemia
  TGI: > 100 µM
UO-31 renal
  TGI: > 100 µM
SK-OV-3 ovarian
  TGI: > 100 µM
NCI/ADR-RES ovarian
  TGI: > 100 µM
HOP-92 NSCLC
  TGI: > 100 µM
786-0 renal
  TGI: > 100 µM
MOLT-4 leukemia
  TGI: > 100 µM
SK-MEL-5 melanoma
  TGI: > 100 µM
SW-620 colon
  TGI: > 100 µM
TK-10 renal
  TGI: > 100 µM
A549 NSCLC
  TGI: > 100 µM
OVCAR-8 ovarian
  TGI: > 100 µM
HCT-15 colon
  TGI: > 100 µM
SN12C renal
  TGI: > 100 µM
SNB-19 CNS
  TGI: > 100 µM
OVCAR-4 ovarian
  TGI: > 100 µM
MDA-MB-435
  TGI: > 100 µM
NCI-H522 lung
  TGI: > 100 µM
SNB-75 CNS
  TGI: 67.7 µM
CAKI-1 renal
  TGI: > 100 µM
RXF 393 renal
  TGI: > 100 µM
COLO 205 colon
  TGI: > 100 µM
SF-295 CNS
  TGI: > 100 µM
MALME-3M melanoma
  TGI: > 100 µM
RPMI-8226 leukemia
  TGI: > 100 µM
MCF7 breast
  TGI: > 100 µM
ACHN renal
  TGI: > 100 µM
SF-539 CNS
  TGI: > 100 µM
M14 melanoma
  TGI: > 100 µM
DU-145 prostate
  TGI: > 100 µM
OVCAR-5 ovarian
  TGI: > 100 µM
UACC-257 melanoma
  TGI: > 100 µM
IGROV1 ovarian
  TGI: > 100 µM
HT29 colon
  TGI: > 100 µM
MDA-MB-231 breast
  TGI: > 100 µM
CCRF-CEM leukemia
  TGI: > 100 µM
PC-3 prostate
  TGI: > 100 µM
SK-MEL-2 melanoma
  TGI: > 100 µM
KM12 colon
  TGI: > 100 µM
EKVX NSCLC
  TGI: > 100 µM
NCI-H226 lung
  TGI: > 100 µM
UACC-62 melanoma
  TGI: > 100 µM
OVCAR-3 ovarian
  TGI: > 100 µM
MDA-N
  TGI: > 100 µM
BT-549 breast
  TGI: > 100 µM
SK-MEL-28 melanoma
  TGI: > 100 µM
NCI-H23 lung
  TGI: > 100 µM
U251 CNS
  TGI: > 100 µM
HS 578T breast
  TGI: 99.7 µM
A498 renal
  TGI: > 100 µM
HL-60(TB) leukemia
  TGI: > 100 µM
HCT-116 colon
  TGI: > 100 µM
NCI-H460 lung
  TGI: > 100 µM
HOP-62 NSCLC
  TGI: > 100 µM
SR leukemia
  TGI: > 100 µM
SF-268 CNS
  TGI: > 100 µM
